Experimental findings from ChEMBL document CHEMBL1135299, “Design, synthesis and biological activity of novel non-peptidyl endothelin converting enzyme inhibitors, 1-phenyl-tetrazole-formazan analogues” (Bioorg Med Chem Lett, 2002) are described below.

For one assay, the target named is T1, Endothelin-converting enzyme 1 (Rattus norvegicus) (UniProt P42893).
T1 sequence (whole entry): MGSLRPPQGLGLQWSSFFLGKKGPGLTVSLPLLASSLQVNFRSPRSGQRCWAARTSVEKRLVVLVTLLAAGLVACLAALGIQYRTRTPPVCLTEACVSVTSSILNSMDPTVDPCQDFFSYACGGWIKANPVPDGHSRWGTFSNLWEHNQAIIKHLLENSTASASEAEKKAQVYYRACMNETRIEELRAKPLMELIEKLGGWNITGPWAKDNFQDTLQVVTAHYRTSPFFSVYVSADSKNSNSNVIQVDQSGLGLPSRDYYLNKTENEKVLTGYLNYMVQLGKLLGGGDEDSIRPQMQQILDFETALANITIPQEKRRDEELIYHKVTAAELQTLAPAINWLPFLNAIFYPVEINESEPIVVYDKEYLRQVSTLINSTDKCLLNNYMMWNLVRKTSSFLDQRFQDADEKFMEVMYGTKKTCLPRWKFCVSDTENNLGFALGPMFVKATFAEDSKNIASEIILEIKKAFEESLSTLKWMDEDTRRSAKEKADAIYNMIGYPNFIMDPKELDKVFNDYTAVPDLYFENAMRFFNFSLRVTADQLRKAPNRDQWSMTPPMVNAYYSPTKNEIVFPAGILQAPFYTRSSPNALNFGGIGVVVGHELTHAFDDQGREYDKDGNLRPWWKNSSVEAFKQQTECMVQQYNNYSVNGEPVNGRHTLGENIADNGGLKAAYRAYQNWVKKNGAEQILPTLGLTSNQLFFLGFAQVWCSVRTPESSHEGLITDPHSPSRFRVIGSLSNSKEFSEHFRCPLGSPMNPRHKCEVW
The assay can be described thus: Tested in vitro for percent inhibition of Endothelin-converting enzyme (ECE) of rat lung membrane at 10 uM. In kind it is tissue-based.
For `Clc1ccc(N/N=C(\N=N\c2nnnn2-c2ccccc2)c2ccccc2)cc1`, the inhibition turned out to be 37%.

In the next assay the target is T2, Endothelin-converting enzyme 1 (Rattus norvegicus, UniProt P42893).
T2 sequence (P42893 whole entry): T1 sequence (whole entry)
The assay can be described thus: Tested in vitro for inhibition of Endothelin-converting enzyme (ECE) of rat lung membrane. In kind it is tissue-based.
Take `CC(C)c1ccc(N/N=C(\N=N\c2nnnn2-c2ccccc2)c2ccccc2)cc1`: the IC50 was 3.4 µM.
Compound `Cc1nn(-c2ccccc2)c(NC(=O)NS(=O)(=O)c2ccc(Cl)cc2)c1C#N` yielded an IC50 of 0.042 µM.
Consider `CC(C)(C)c1ccc(N/N=C(\N=N\c2nnnn2-c2ccccc2)c2ccccc2)cc1`, for which the IC50 was found to be 3.8 µM.
The same measure, in the same setting: the figure for `CCCc1ccc(N/N=C(\N=N\c2nnnn2-c2ccccc2)c2ccccc2)cc1` is 2.6 µM; for `CCc1ccc(N/N=C(\N=N\c2nnnn2-c2ccccc2)c2ccccc2)cc1` it is 3.8 µM; for `c1ccc(C(=N/Nc2ccc(C3CCCCC3)cc2)/N=N/c2nnnn2-c2ccccc2)cc1` it is 3.6 µM.
`Cc1ccc(N/N=C(\N=N\c2nnnn2-c2ccccc2)c2ccccc2)cc1` yielded an IC50 of 8.4 µM.
The compound `CCC(C)c1ccc(N/N=C(\N=N\c2nnnn2-c2ccccc2)c2ccccc2)cc1` (stereo not given) yielded an IC50 of 2.7 µM.
In turn, `c1ccc(N/N=C(\N=N\c2nnnn2-c2ccccc2)c2ccccc2)cc1` gave an IC50 of 10 µM.
